Test results reported in patent US5330741A, “Long-wavelength water soluble chlorin photosensitizers useful for photodynamic therapy and diagnosis of tumors” (The Regents of the University of California, priority 1992, dated 1994).
Where two headings read alike, the source gives them in different places.

Key:
[1] = Long wavelength molar extinction coefficient; type: physicochemical; conditions: in methanol, at 660 nm
Experimental: Lysyl-chlorin-p6 was prepared by treatment of purpurin 18 methyl ester (obtained from chlorophyll-a) with lysine in a mixture of dichloromethane, pyridine, and water. It was purified using a Waters Associate's C18 SepPak cartridge. Reversed phase analytical high-performance liquid chromatography (HPLC) indicated the product to consist of 60% lysyl chlorin-p6 and 40% chlorin-p6 based on equal absorbance at 403 nm. This mixture is termed "LCP". The long wavelength molar extinction coefficient of lysyl-chlorin-p6 in methanol was 39,600 at 660 nm.

Water solubility = type: physicochemical
Stability of compounds = type: physicochemical; conditions: decomposes to purpurin-18 methyl ester (3) and polar baseline material
normal skin = conditions: comparable drug and light doses; cited from earlier work
tumor = conditions: cited from earlier work
cell killing = conditions: cited from earlier work; for activity in photodynamic therapy: in vitro conditions; for photosensitized cell killing: low intensity of red light

With `C=Cc1c(C)c2cc3nc(c(C(=O)O)c4[nH]c(cc5nc(cc1[nH]2)C(C)=C5CC)c(C)c4C(=O)NCCCCC(N)C(=O)O)[C@@H](CCC(=O)OC)[C@@H]3C` (stereo partly shown) [(II), chlorin-p6 6-N^ε -lysylamide-7-methyl ester] the “long wavelength molar extinction coefficient” value [1] was 39,600 and the solubility in water (Water solubility) was “well soluble in water”.
For `C=Cc1c(C)c2cc3nc(c(C(=O)O)c4[nH]c(cc5nc(cc1[nH]2)C(C)=C5CC)c(C)c4C(=O)NCCCC)[C@@H](CCC(=O)OC)[C@@H]3C` [(VII), chlorin-p6-6-N-butylamide-7-methyl ester], the stability (Stability of compounds) was “not very stable and readily decomposed”.
For `C=Cc1c(C)c2cc3nc(c(CC(=O)N[C@@H](CC(=O)[O-])C(=O)[O-])c4[nH]c(cc5nc(cc1[nH]2)C(C)=C5CC)c(C)c4C(=O)[O-])[C@@H](CCC(=O)[O-])[C@@H]3C.[Na+].[Na+].[Na+].[Na+]` [MACE, mono-L-aspartyl-chlorin e6], the “level of PDT induced normal skin damage vs HpD” value (normal skin) is given as “significantly lesser”, the tumor cures (tumor; 24 hours between drug administration and light) is given as “ineffective at inducing tumor cures” and the tumor cures (tumor; administered 4-6 hours prior to light exposure) is given as “PDT induced tumor cures were obtained”.
For `C=Cc1c(C)c2cc3nc(c(C(=O)O)c4[nH]c(cc5nc(cc1[nH]2)C(C)=C5CC)c(C)c4C(=O)O)[C@@H](CCC(=O)O)[C@@H]3C` [chlorin-p6], the “activity in photodynamic therapy” value (cell killing) is given as “active in photodynamic therapy” and the photosensitized cell killing (cell killing) is given as “potent photosensitizers which promote cell killing”.
In the case of `C=Cc1c(C)c2cc3nc(c4c5[nH]c(cc6nc(cc1[nH]2)C(C)=C6CC)c(C)c5C(=O)OC4=O)[C@@H](CCC(=O)O)[C@@H]3C` [Purpurin-18], the “activity in photodynamic therapy” value (cell killing) is given as “active in photodynamic therapy” and the photosensitized cell killing (cell killing) is given as “potent photosensitizers which promote cell killing”.
